# Source: US5292729A, “II-bond aromatic vitamin chelates” (Albion International, Inc., priority 1992, dated 1994)
# Legend:
# [1] = 65Zn level in blood of rats after oral gavage, scintillation count; settings: oral 0.03 mg Zn, 15 μcuries 65Zn, mean ± standard deviation
# Description: (§1) The chelate thus prepared was diluted such that a 5 μl dose contained about 0.03 mg Zn and 15 μcuries of ^65 Zn activity. This dose, when administered to a standard laboratory rat weighing 150±25 gms, closely approximates the RDA of 15 mg Zn for a human being weighing about 70 kg.
# (§2) Ten Sprague Dawley rats, weighing 190±10 grams each were divided into two groups of five rats. Five rats were designated the test group and the other five rats the control group.
# (§3) No surgery was performed as all animals were given light doses of nembutal (40 mg/kg) to improve ease of handling and minimize injury during lavage and bloodletting.
# Beginning 30 minutes after dosing and continuing at 30 minute intervals up to a period of 3 hours following dosing, 0.1 ml of blood was withdrawn from rats in both the test and control groups. The blood was then analyzed for ^65 Zn by scintillation count.
# [2] = 65Zn isotope levels in urine and tissues of sacrificed rats
# Description: as §1, §2, §3
# The rats used in Example 22 were sacrificed after completion of the testing and the urine, liver, muscle, kidney, brain and spleens from the animals in each grouping were collected for comparative ^65 zinc isotope levels.
smiles,measurement,setting,value
[Cl-].[Cl-].[Zn+2] [ZnCl2],65Zn in blood,[1]; 0.5 hrs after dosing,210 ± 11 CCPM
same,65Zn in blood,[1]; 1.0 hrs after dosing,226 ± 14 CCPM
same,65Zn in blood,[1]; 1.5 hrs after dosing,212 ± 26 CCPM
same,65Zn in blood,[1]; 2.5 hrs after dosing,206 ± 8 CCPM
same,65Zn in blood,[1]; 3.0 hrs after dosing,207 ± 8 CCPM
same,65Zn in brain,"[2]; brain, after 3 hour test",0 CCPM
same,65Zn in kidney,"[2]; kidney, after 3 hour test",24 CCPM
same,65Zn in liver,"[2]; liver, after 3 hour test",50 CCPM
same,65Zn in muscle,"[2]; muscle, after 3 hour test",0 CCPM
same,65Zn in spleen,"[2]; spleen, after 3 hour test",16 CCPM
same,excretion of zinc compared with the chelated form,[2]; urine,excreted more readily
same,65Zn in urine,"[2]; urine, after 3 hour test",38 CCPM
